From PMC12025037, “Molecular Basis of Dipeptide Recognition in Drosophila melanogaster Angiotensin I-Converting Enzyme Homologue, AnCE” (Biomolecules, 2025)
Residues, ends and D or L forms follow the SMILES beside them.

Key:
AnCE = target: T1, AnCE (Drosophila melanogaster, UniProt Q10714); experiment: Inhibition of AnCE activity, fluorogenic Abz-FRK(Dnp)-P substrate assay; format: biochemical; settings: for IC50: AnCE 25 ng, substrate Abz-FRK(Dnp)-P, pH 7.5, 20 °C, 10 min pre-incubation with inhibitor; for Ki: AnCE
T1 construct: made in house; host or cells: Pichia pastoris GS115 (vector pPiC9), purified from the culture supernatant
T1 sequence (Q10714 18-615): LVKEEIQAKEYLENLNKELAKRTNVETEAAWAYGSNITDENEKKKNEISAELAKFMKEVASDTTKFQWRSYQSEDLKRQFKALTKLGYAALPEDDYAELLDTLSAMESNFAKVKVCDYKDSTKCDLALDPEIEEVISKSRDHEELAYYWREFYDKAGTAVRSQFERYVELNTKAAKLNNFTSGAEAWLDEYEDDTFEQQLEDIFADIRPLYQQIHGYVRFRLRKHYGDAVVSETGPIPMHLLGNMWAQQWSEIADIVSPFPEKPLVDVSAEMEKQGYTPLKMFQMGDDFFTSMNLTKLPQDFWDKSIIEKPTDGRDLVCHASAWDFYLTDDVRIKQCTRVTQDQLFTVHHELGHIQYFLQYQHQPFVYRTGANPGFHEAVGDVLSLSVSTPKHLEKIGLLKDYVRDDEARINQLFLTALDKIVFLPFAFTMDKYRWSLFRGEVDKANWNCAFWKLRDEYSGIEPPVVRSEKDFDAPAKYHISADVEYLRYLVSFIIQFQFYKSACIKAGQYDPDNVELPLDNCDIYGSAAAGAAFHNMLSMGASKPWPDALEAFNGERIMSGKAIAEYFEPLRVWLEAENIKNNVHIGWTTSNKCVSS
Description: Enzyme assays were performed using the internally quenched fluorogenic peptide Abz-FRK(Dnp)-P (Enzo Life Sciences Ltd., Exeter, UK) as a substrate for 25 ng of AnCE in 200 µL of 100 mM HEPES buffer pH 7.5 with 50 mM NaCl and 10 µM ZnCl2. The reaction was started by adding 2 µL of 5 mM Abz-FRK(Dnp)-P in dimethyl sulfoxide to the buffer in wells of a 96-well black plastic plate (Corning Life Sciences, High Wycombe, UK), and the release of fluorescence on hydrolysis of the substrate was monitored continuously at 20 °C using a FLUOstar Omega (BMG Labtech GmbH, Offenburg, Germany) with λex at 340 nm and λem set at 430 nm. For studying the effect of dipeptide inhibitors, the enzyme in the assay buffer was pre-incubated with inhibitor for 10 min prior to the addition of the substrate. IC50 values were determined using the non-linear regression curve-fitting software [log(inhibitor) vs. response] of GraphPad Prism 7.01 (GraphPad Software, San Diego, CA, USA). The coefficient of determination (R^2) values for the regression model ranged from 0.9852 to 0.9629. Ki values were obtained using the Cheng–Prusoff equation and a substrate Km of 14.24 µM, obtained using non-linear regression curve-fitting software (Michaelis–Menten) of GraphPad Prism 7.01. The R^2 for the Km determination was 0.9787 [31].

cACE = target: cACE; set-up: method as in PMID 25053098; settings: cited from earlier work
ACE = test system: ACE; set-up: method as in doi:10.1007/s00217-013-2014-x; settings: inhibition of ACE activity; cited from earlier work
nACE = target: nACE; set-up: method as in PMID 25053098; settings: cited from earlier work
[1] = from IC50 by Cheng–Prusoff equation, substrate Km 14.24 µM

Row | IC50 (AnCE) [µM] | Ki (AnCE; [1]) [µM] | Ki (AnCE; values restated in µM in the text) [µM] | SMILES | Ki (cACE) [µM] | IC50 (ACE) [µM] | Ki (nACE) [µM] | inhibition of cACE (in words) (cACE)
1 | 340 | 80 |  | CC[C@H](C)[C@H](N)C(=O)N[C@@H](Cc1c[nH]c2ccccc12)C(=O)O [IW] | 1.6 | 0.7 | 59.6 | 
2 | 880 |  | 200 | NC(N)=NCCC[C@H](N)C(=O)N[C@@H](Cc1c[nH]c2ccccc12)C(=O)O [RW] (H-Arg-Trp-OH) |  |  |  | 
3 | 3400 | 750 |  | N[C@@H](Cc1ccc(O)cc1)C(=O)N[C@@H](Cc1c[nH]c2ccccc12)C(=O)O [YW] (H-Tyr-Trp-OH) |  |  |  | poor inhibitors
4 | 3780 | 840 |  | N=C(N)NCCC[C@H](NC(=O)[C@@H](N)Cc1c[nH]c2ccccc12)C(=O)O [WR] (H-Trp-Arg-OH) |  |  |  | poor inhibitors

Row | SMILES | IC50 (AnCE) [µM] | Ki (AnCE; [1]) [µM] | Ki (AnCE; values restated in µM in the text) [µM] | Ki (cACE) [µM] | IC50 (ACE) [µM] | Ki (nACE) [µM] | inhibition of cACE (in words) (cACE)
5 | CC(C)[C@H](N)C(=O)N[C@@H](Cc1c[nH]c2ccccc12)C(=O)O [VW] (H-Val-Trp-OH) | 780 | 170 |  | 2.1 |  | 152 | 
